Laboratory results: US20220346382A1, “COMPOSITION FOR TREATING AND PREVENTING BACTERIAL GROWTH ON A SUBSTRATE” (PETROLIAM NASIONAL BERHAD (PETRONAS), priority 2019, published 2022)

Tests used:
[1] = tested on: bacteria of produced water sample B04S; assay: Cell dry weight of cultured formulations (NACE TM0194-2014); format: cell-based; conditions: Day 7, ambient temperature, static
Excerpt: Bacteria were isolated from produced water samples from an oil field (denoted as samples B04S and B24) in accordance with NACE TM0194-2014.
In sample B04S, Bacillus sp., Bacillus thuringiensis and Marine actinomycetes were identified. In sample B24, Bacillus thuringiensis and Marine actinomycetes were identified. Marine actinomycete was identified to be the main species that support biofilm stability and a growth environment for other species including sulphate-reducing bacteria (SRB).
(§1) Formulations were prepared by mixing the listed chemical components in the stated concentrations with produced water sample BO4S in a flask (Table 1). These formulations were tested in subsequent examples for biocide activity.
The formulations in Example 1 were cultured for seven days at ambient temperatures and static conditions in glass vials. Subsequently the cell dry weight of the formulations was quantified in accordance with NACE TM0194-2014. The cell dry weight for each formulation was reported in and/or converted to g/mL for comparison (FIG. 1).

[2] = tested on: bacteria of produced water sample B04S; assay: Viable cell count from suspension cells by hemocytometer (ASTM E 2315-03); format: cell-based
Protocol: as §1
In a typical procedure, a glass hemocytometer and coverslip was cleaned with alcohol prior to use. The coverslip was moisturised with water and affixed to the hemocytometer. The presence of Newton's refraction rings under the coverslip indicated proper adhesion.
The flasks containing the formulations were gently swirled to ensure that the cells were evenly distributed. Before the cells settled to the bottom of the flasks, 0.5 mL of a cell suspension was transferred out to an Eppendorf tube using a 5 mL sterile pipette. Trypan blue (three to five drops) was added to the tube. 100 μL of the Trypan blue-treated cell suspension was pipetted and transferred to the hemocytometer. If a glass hemocytometer was used, both chambers were gently filled underneath the coverslip, allowing the cell suspension to be drawn out by capillary action. If a disposable hemocytometer was used, the cell suspension was pipetted into the well of the counting chamber, allowing capillary action to draw it inside. A microscope was used to focus on the grid lines of the hemocytometer with a 10× objective.

Row | Compound | lower cell dry weight as compared to formulation THPS [1] [%] | lower cell count as compared to THPS only ([2]; Day 5, sample B04S) [%] | lower cell count as compared to THPS only ([2]; Day 7, sample B04S) [%] | suppression of bacteria growth ([2]; 100 ppm, Day 7)
1 | N[C@H](Cc1c[nH]c2ccccc12)C(=O)O [TT, D-Tryptophan] | 40 | 77 | 78 | 
2 | tetrakis hydroxymethyl phosphonium sulfate [THPS, reference compound] |  |  |  | could not suppress bacteria growth
